Source: patent US20080206175A1, “Composition for Skin Whitening and Wrinkle Improvement Comprising Vaccinium Uliginosum Extract and Method for Preparation Thereof” (priority 2005, published 2008)

How the values were obtained:
[1] = system: B16 melanoma F10 cells; experiment: Inhibitory effect on melanin production in B16 melanoma F10 cells; assay type: cell-based; conditions: 10 μM, 72 hours
Experimental: B 16 melanoma F 10 cells were seeded into each well of a 24-well plate at a cell concentration of 10^4 cells/well. After 17 hours, the adhesion of the cells was confirmed and the medium was removed. […] The plate was incubated in a CO2 incubator for 72 hours and then the medium was removed. Next, 2 ml of NaOH was added into each well of the plate, followed by standing at 60° C. for 30 minutes. Then, the cell solution was measured for absorbance at 450 nm. The concentration of melanin was calculated compared to the melanin standard curve.

[2] = system: B16 melanoma F10 cells; experiment: Inhibitory effect on total melanin production upon ultraviolet irradiation, B16 melanoma F10 cells; assay type: cell-based

O=c1cc(CO)occ1O [kojic acid]
production of melanin [1]: 16.54 µg/mL | melanin production upon ultraviolet irradiation ([2]; 0.2 μM): 22.72 µg/mL | melanin production upon ultraviolet irradiation ([2]; 2 μM): 19.22 µg/mL
